Assay results from patent US20240132484A1, “BROAD SPECTRUM ANTIVIRAL COMPOUNDS TARGETING THE SKI COMPLEX” (priority 2020, published 2024).
Where “and” joins values, the source holds several entries; their conditions need not be identical. Equal values may be shown once. Entries after “also recorded” stand apart in the source; their conditions may differ. Read-outs that look alike come from different tables or passages of the source.

Columns and labels:
SARS2 = type: cell-based, SARS-CoV-2; conditions: for Percentage Inhibition Average 1 μM / Screening data (Relative infection to DMSO controls) Average 1 μM: SARS2, 1 μM; for Screening data (Relative infection to DMSO controls) Average 1 μM / Screening data (Relative infection to DMSO controls) Average 5 μM / Screening data (Relative infection to DMSO controls) Average 10 μM / Screening data (Relative infection to DMSO controls) Average 25 μM / Screening data (Relative infection to DMSO controls) Average 50 μM / Average (relative infection to DMSO over the 5 tested concentrations): 100=DMSO control; for Percentage Inhibition Average 5 μM / Screening data (Relative infection to DMSO controls) Average 5 μM: SARS2, 5 μM; for Percentage Inhibition Average 10 μM / Screening data (Relative infection to DMSO controls) Average 10 μM: SARS2, 10 μM; for Percentage Inhibition Average 25 μM / Screening data (Relative infection to DMSO controls) Average 25 μM: SARS2, 25 μM; for Percentage Inhibition Average 50 μM / Screening data (Relative infection to DMSO controls) Average 50 μM: SARS2, 50 μM; for Average (relative infection to DMSO over the 5 tested concentrations): SARS2, average over 1 to 50 uM; for Infection Data, Average, Mean percentage infection relative to DMSO control: Average of Exp 1 (SMW491) and Exp 2 (SMW492); for Infection Data, Percentage Infection Relative to Appropriate DMSO Control: single well, avg background subtraction
cells (nuclei count) = conditions: for Relative cell count to DMSO controls, Average 1 μM / Relative cell count to DMSO controls, Average 5 μM / Relative cell count to DMSO controls, Average 10 μM / Relative cell count to DMSO controls, Average 25 μM / Relative cell count to DMSO controls, Average 50 μM: toxicity data, 100=DMSO control; for Relative cell count to DMSO controls, Average (for correlation analysis): average value over the 5 tested concentrations (1 to 50 uM); for Toxicity Data, Average, Mean percentage relative to DMSO control: Average of Exp 1 (SMW491) and Exp 2 (SMW492); for Toxicity Data, Percentage Relative to Appropriate DMSO Control: single well

For `CC1=C(C(=O)NCC2CCCCC2)C(c2cc(C)c(Br)s2)NC(=O)N1` (centres unmarked) [SILCS68], the “Percentage Inhibition Average 1 μM” value (SARS2) was 32.72%, the “Screening data (Relative infection to DMSO controls) Average 1 μM” value (SARS2) was 67.28 and the “Percentage Inhibition Average 5 μM” value (SARS2) was 28.63%. The “Screening data (Relative infection to DMSO controls) Average 5 μM” value (SARS2) was 71.37, the “Percentage Inhibition Average 10 μM” value (SARS2) was 16.60% and the “Screening data (Relative infection to DMSO controls) Average 10 μM” value (SARS2) was 83.40. The “Percentage Inhibition Average 25 μM” value (SARS2) was −10.69%, the “Screening data (Relative infection to DMSO controls) Average 25 μM” value (SARS2) was 110.69 and the “Percentage Inhibition Average 50 μM” value (SARS2) was 20.80%. For the same compound, the “Screening data (Relative infection to DMSO controls) Average 50 μM” value (SARS2) was 79.20, the “Average (relative infection to DMSO over the 5 tested concentrations)” value (SARS2) was 82.39 and the “Relative cell count to DMSO controls, Average 1 μM” value (shortened to “Relative cell count … Average 1 μM”) (cells (nuclei count)) was 117.26. The “Relative cell count to DMSO controls, Average 5 μM” value (“Relative cell count … Average 5 μM” below) (cells (nuclei count)) was 114.63, the “Relative cell count to DMSO controls, Average 10 μM” value (from here on “Relative cell count … Average 10 μM”) (cells (nuclei count)) was 110.48 and the “Relative cell count to DMSO controls, Average 25 μM” value (“Relative cell count … Average 25 μM” below) (cells (nuclei count)) was 100.14. The “Relative cell count to DMSO controls, Average 50 μM” value (shortened to “Relative cell count … Average 50 μM”) (cells (nuclei count)) was 91.82 and the “Relative cell count to DMSO controls, Average (for correlation analysis)” value (“Relative cell count … (for correlation analysis)” for short) (cells (nuclei count)) was 106.87.
In the case of `COc1ccc(CNCCc2ccccc2F)c(OCC(O)CN2CCN(C)CC2)c1` (centres unmarked) [SILCS45], the “SARS2 antiviral activity” value (SARS2) is reported as “improved activity over SILCS41; also recorded: improved properties over SILCS46”, the “Infection Data, Average, Mean percentage infection relative to DMSO control” value (SARS2; n=4, 1 uM) is reported as 54.68% and the “Infection Data, Average, Mean percentage infection relative to DMSO control” value (SARS2; n=4, 5 uM) is reported as −1.00%. For the same compound, the “Infection Data, Average, Mean percentage infection relative to DMSO control” value (SARS2; n=4, 10 uM) was 3.88%, the “Infection Data, Average, Mean percentage infection relative to DMSO control” value (SARS2; n=4, 25 uM) was −1.28% and the “Infection Data, Average, Mean percentage infection relative to DMSO control” value (SARS2; n=4, 50 uM) was 3.57%. The “Infection Data, Percentage Infection Relative to Appropriate DMSO Control” value (SARS2; Exp 1 (SMW491), 1 uM) was 102.92% and 112.49%, the “Infection Data, Percentage Infection Relative to Appropriate DMSO Control” value (SARS2; Exp 1 (SMW491), 5 uM) was −1.31% and −0.48% and the “Infection Data, Percentage Infection Relative to Appropriate DMSO Control” value (SARS2; Exp 1 (SMW491), 10 uM) was 0.12% and −3.09%. For the same compound, the “Infection Data, Percentage Infection Relative to Appropriate DMSO Control” value (SARS2; Exp 1 (SMW491), 25 uM) was −0.41% and −2.68%, the “Infection Data, Percentage Infection Relative to Appropriate DMSO Control” value (SARS2; Exp 1 (SMW491), 50 uM) was 1.17% and −2.53% and the “Infection Data, Percentage Infection Relative to Appropriate DMSO Control” value (SARS2; Exp 2 (SMW492), 1 uM) was 3.72% and −0.43%. The “Infection Data, Percentage Infection Relative to Appropriate DMSO Control” value (SARS2; Exp 2 (SMW492), 5 uM) was −2.43% and 0.22%, the “Infection Data, Percentage Infection Relative to Appropriate DMSO Control” value (SARS2; Exp 2 (SMW492), 10 uM) was 7.69% and 10.80% and the “Infection Data, Percentage Infection Relative to Appropriate DMSO Control” value (SARS2; Exp 2 (SMW492), 25 uM) was 0.00% and −2.03%. For the same compound, the “Infection Data, Percentage Infection Relative to Appropriate DMSO Control” value (SARS2; Exp 2 (SMW492), 50 uM) was 7.94% and 7.68%, the “Percentage Inhibition Average 1 μM” value (SARS2) was 45.32% and the “Screening data (Relative infection to DMSO controls) Average 1 μM” value (SARS2) was 54.68. For the same compound, the “Percentage Inhibition Average 5 μM” value (SARS2) was 101.00%, the “Screening data (Relative infection to DMSO controls) Average 5 μM” value (SARS2) was −1.00 and the “Percentage Inhibition Average 10 μM” value (SARS2) was 96.12%. The “Screening data (Relative infection to DMSO controls) Average 10 μM” value (SARS2) was 3.88, the “Percentage Inhibition Average 25 μM” value (SARS2) was 101.28% and the “Screening data (Relative infection to DMSO controls) Average 25 μM” value (SARS2) was −1.28. For the same compound, the “Percentage Inhibition Average 50 μM” value (SARS2) was 96.43%, the “Screening data (Relative infection to DMSO controls) Average 50 μM” value (SARS2) was 3.57 and the “Average (relative infection to DMSO over the 5 tested concentrations)” value (SARS2) was 11.97. For the same compound, the “SARS2 antiviral activity” value (SARS2; listed as D45) was “more potent than D46”, the “Relative cell count … Average 1 μM” value (cells (nuclei count)) was 116.96 and the “Relative cell count … Average 5 μM” value (cells (nuclei count)) was 123.47. The “Relative cell count … Average 10 μM” value (cells (nuclei count)) was 131.34, the “Relative cell count … Average 25 μM” value (cells (nuclei count)) was 119.79 and the “Relative cell count … Average 50 μM” value (cells (nuclei count)) was 125.46. For the same compound, the “Toxicity Data, Average, Mean percentage relative to DMSO control” value (cells (nuclei count); n=4, 1 uM) was 116.96%, the “Toxicity Data, Average, Mean percentage relative to DMSO control” value (cells (nuclei count); n=4, 5 uM) was 123.47% and the “Toxicity Data, Average, Mean percentage relative to DMSO control” value (cells (nuclei count); n=4, 10 uM) was 131.34%. For the same compound, the “Toxicity Data, Average, Mean percentage relative to DMSO control” value (cells (nuclei count); n=4, 25 uM) was 119.79%, the “Toxicity Data, Average, Mean percentage relative to DMSO control” value (cells (nuclei count); n=4, 50 uM) was 125.46% and the “Toxicity Data, Percentage Relative to Appropriate DMSO Control” value (cells (nuclei count); Exp 1 (SMW491), 1 uM) was 94% and 101%. For the same compound, the “Toxicity Data, Percentage Relative to Appropriate DMSO Control” value (cells (nuclei count); Exp 1 (SMW491), 5 uM) was 121% and 114%, the “Toxicity Data, Percentage Relative to Appropriate DMSO Control” value (cells (nuclei count); Exp 1 (SMW491), 10 uM) was 111% and 127% and the “Toxicity Data, Percentage Relative to Appropriate DMSO Control” value (cells (nuclei count); Exp 1 (SMW491), 25 uM) was 95% and 123%. For the same compound, the “Toxicity Data, Percentage Relative to Appropriate DMSO Control” value (cells (nuclei count); Exp 1 (SMW491), 50 uM) was 129% and 121%, the “Toxicity Data, Percentage Relative to Appropriate DMSO Control” value (cells (nuclei count); Exp 2 (SMW492), 1 uM) was 139% and 133% and the “Toxicity Data, Percentage Relative to Appropriate DMSO Control” value (cells (nuclei count); Exp 2 (SMW492), 5 uM) was 133% and 126%. The “Toxicity Data, Percentage Relative to Appropriate DMSO Control” value (cells (nuclei count); Exp 2 (SMW492), 10 uM) was 137% and 151%, the “Toxicity Data, Percentage Relative to Appropriate DMSO Control” value (cells (nuclei count); Exp 2 (SMW492), 25 uM) was 135% and 127% and the “Toxicity Data, Percentage Relative to Appropriate DMSO Control” value (cells (nuclei count); Exp 2 (SMW492), 50 uM) was 126%. For the same compound, the “Relative cell count … (for correlation analysis)” value (cells (nuclei count)) was 123.40.
In the case of `CCCCCCCCNC(=O)C1=C(C)NC(=O)NC1c1ccc(OC)c(OC)c1` (centres unmarked) [SILCS65], the “Percentage Inhibition Average 1 μM” value (SARS2) is reported as 12.85%, the “Screening data (Relative infection to DMSO controls) Average 1 μM” value (SARS2) is reported as 87.15 and the “Percentage Inhibition Average 5 μM” value (SARS2) is reported as 42.13%. The “Screening data (Relative infection to DMSO controls) Average 5 μM” value (SARS2) was 57.87, the “Percentage Inhibition Average 10 μM” value (SARS2) was −8.68% and the “Screening data (Relative infection to DMSO controls) Average 10 μM” value (SARS2) was 108.68. The “Percentage Inhibition Average 25 μM” value (SARS2) was −33.09%, the “Screening data (Relative infection to DMSO controls) Average 25 μM” value (SARS2) was 133.09 and the “Percentage Inhibition Average 50 μM” value (SARS2) was −46.13%. The “Screening data (Relative infection to DMSO controls) Average 50 μM” value (SARS2) was 146.13, the “Average (relative infection to DMSO over the 5 tested concentrations)” value (SARS2) was 106.58 and the “Relative cell count … Average 1 μM” value (cells (nuclei count)) was 104.64. The “Relative cell count … Average 5 μM” value (cells (nuclei count)) was 115.73, the “Relative cell count … Average 10 μM” value (cells (nuclei count)) was 98.27 and the “Relative cell count … Average 25 μM” value (cells (nuclei count)) was 89.35. For the same compound, the “Relative cell count … Average 50 μM” value (cells (nuclei count)) was 75.91 and the “Relative cell count … (for correlation analysis)” value (cells (nuclei count)) was 96.78.
